Measurements: US20050201938A1, “Method for selectively inhibiting ghrelin action” (priority 2000, published 2005)

Columns and labels:
[1] = In-vivo analysis of body composition by dual-energy X-ray absorptiometry (DXA); set-up: species or system mice
Protocol: Body composition was measured on day 14 of the treatment period by DXA using a Norland p-DEXA® (Norland, USA). The system provides a non-invasive method for quantification of whole body composition and is based on the differential attenuation of high and low energy x-rays by the tissues in the scan area. Soft tissues attenuate the energy beam less than bone; of the soft tissue mass, fat tissue attenuates the beam less than lean tissue. Fat mass consists primarily of adipose tissue, but lean mass includes organs, tendons, cartilage, blood and body water in addition to skeletal muscle. In the present study, fat mass, lean mass and bone mineral content (bone mass) were measured and reported. Mice were anesthetized with inhalation of isoflorane and placed on the instrument platform in ventral position. Measurements were performed at a speed of 10 mm/min and a resolution of 0.5×0.5 mm. Quality controls using phantom ID2232 and Calibration Standard 82315 (Norland) were performed before starting measurements.
(§1) Mice were treated with GHRP-2 for 18 days. […] This was partially a consequence of decreased (p=0.02) lipid utilization measured by indirect calorimetry. Hypothalamic mRNA levels (measured by RT-PCR) of neuropeptide Y (NPY), agouti-related-protein (AGRP), pro-opio-melanocortin (POMC) and […] (MCH) were not changed. Since GHRP-6 increases c-fos expression in NPY-neurons (Vernon, R. G.; J Endocrinol 150, 129-40 (1996)) and because these neurons also release AGRP, a natural melanocyte stimulating hormone antagonist, GHRP-2 treatment was repeated in NPY-knockout mice (NPY-/−). […] However, an increase in AGRP mRNA levels (p=0.008, n=24 in GHRP-2 treated (NPY-/−)) was observed. Plasma levels of IGF-I, insulin, glucose and corticosterone were not changed. […] 200 μg of rat ghrelin was injected subcutaneously into wild-type mice, GHRP-2 or vehicle (phosphate buffered saline). After 5 days of treatment, body weight increased (p=0.00) 12% in both ghrelin- and GHRP-2-treated mice but not in controls. This weight gain was a consequence of decreased energy expenditure and decreased lipid utilization.

[2] = Plasma levels of IGF-I, insulin, glucose and corticosterone after GHRP-2 treatment; assay type: in vivo; details: GHRP-2 treated mice
Protocol: as §1

[3] = Indirect calorimetry (energy expenditure, fuel utilization); assay type: in vivo, mice
Protocol: Twenty-four hour energy expenditure (EE) and respiratory quotient (RQ) were measured by indirect calorimetry using an open circuit calorimetry system (Oxymax, Columbus Instruments International Corporation; Columbus, Ohio). The instrument was calibrated before each experiment using standard gas mixtures containing known concentrations of CO2, N2 and O2. After the first daily injection, animals were placed in calorimeter chambers containing food and water in a room maintained under identical conditions as those described above throughout the treatment period. Gas sampled from each of 10 chambers was first dried by a condenser. The volume of oxygen consumed (VO2) and carbon dioxide produced (VCO2) in an hour was measured using a paramagnetic oxygen sensor and a spectrophotometric CO2 sensor. Such measurements were obtained hourly for 24 hours. RQ is the ratio of VCO2 to VO2. EE was calculated as the product of calorific value of oxygen (CV) and VO2 per kilogram (kg) of body weight; where CV=3.815+1.232*RQ (Elia, M. & Livesey, G, World Rev Nutr Diet 70, 68-131 (1992)). Total calories expended were calculated to determine daily fuel utilization. To calculate proportion of protein, fat and carbohydrate that is utilized during that 24-hour period, we used Flatt's proposal and assumed that protein utilization was equivalent to protein intake for adult stable animals (Flatt, J. P., J. Nutr Biochem 2, 193-202 (1991)). Using formulae and constants derived by Elia and Livesey (Elia, M. & Livesey, G., World Rev Nutr Diet, 70, 68-131 (1992)), we calculated the percent of daily fuel utilization derived from carbohydrate and fat. Daily caloric intake was calculated as (mass of daily food intake in g)*(physiological fuel value of the diet in kcal/g). Locomotor activity was measured by counting the number of times an animal breaks a new light beam during each of 24 hours in the calorimeter.
as §1

[4] = test system: hypothalamic mRNA of NPY, AGRP, POMC, MCH; assay: Hypothalamic mRNA levels measured by RT-PCR, wild-type mice; assay type: in vivo; details: GHRP-2 treatment
Protocol: as §1

[5] = test system: NPY-knockout mice (NPY-/-); assay: GHRP-2 treatment repeated in NPY-knockout mice; assay type: in vivo
Protocol: (§2) Wild-type mice (129SV strain) and NPY-knockout mice were obtained from Taconic Farms®. Eight-week old dwarf rats were purchased at Harlan UK. Animals were housed individually in a temperature controlled environment (25° C.) with a 12-hour light and 12-hour dark (18.00−06.00) photoperiod. All mice had ad libitum access to pelleted mouse food (5008 PMI® Nutrition International) and tap water. Mice were between 9 and 13 weeks of age and were injected daily between 17.00 and 18.00 with 0.1 ml of phosphate buffered saline (PBS) containing 0 or 8 mg/kg/d ghrelin over 13 days. Food intake and body weights were measured daily at 08.00 h. All animal experiments were conducted in accordance with the principles and procedures outlined in the National Institute of Health (NIH) Guide for the Care and Use of Laboratory Animals.
Mice were treated with GHRP-2 for 18 days. […] This was partially a consequence of decreased (p=0.02) lipid utilization measured by indirect calorimetry. Hypothalamic mRNA levels (measured by RT-PCR) of neuropeptide Y (NPY), agouti-related-protein (AGRP), pro-opio-melanocortin (POMC) and […] (MCH) were not changed. […]

[6] = In vivo administration to wild-type mice: food intake and body weight; details: for body weight increase: wild-type mice, subcutaneous injection, after 5 days of treatment, not in controls
Protocol: as §2, §1

[7] = wild-type mice, 5 days of treatment
[8] = mice treated with GHRP-2 for 18 days, n=42, p=0.001

GHRP-2
fat mass ([1]; mice, 18 days treatment, DXA, p=0.002): significant increase | bone mass ([1]; mice, 18 days treatment, DXA, p=0.017): significant increase | lean mass ([1]; mice, 18 days treatment, DXA, p=0.63): no change | plasma level of IGF-I [2]: not changed | plasma level of corticosterone [2]: not changed | plasma level of glucose [2]: not changed | plasma level of insulin [2]: not changed | lipid utilization ([3]; mice, 18 days treatment, indirect calorimetry, p=0.02): decreased | energy expenditure [3, 7]: decreased | lipid utilization [3, 7]: decreased | hypothalamic mRNA level of agouti-related-protein (AGRP) [4]: not changed | hypothalamic mRNA level of melanocyte-concentrating hormone (MCH) [4]: not changed | hypothalamic mRNA level of neuropeptide Y (NPY) [4]: not changed | hypothalamic mRNA level of pro-opio-melanocortin (POMC) [4]: not changed | energy balance [5]: positive energy balance | AGRP mRNA levels ([5]; p=0.008, n=24): increase | body weight [6, 8]: dose-dependent increase | food intake [6, 8]: dose-dependent increase | body weight increase [6]: 12%

ghrelin
effect of administration in an animal model (fat deposition) ([1]; animal model, inventors' work, Nature 407: 908-913 (2000)): predominantly lead to fat deposition | energy expenditure [3, 7]: decreased | lipid utilization [3, 7]: decreased | body weight increase [6]: 12%
